# Assay results: patent publication US20100298141A1, “SUBSTITUTED PYRIDINE N-OXIDE HERBICIDES” (E. I. DU PONT DE NEMOURS AND COMPANY, priority 2007, published 2010)
# Tests used:
# [1] = tested on: redroot pigweed; assay: Test A pre-/postemergence greenhouse test; type: in vivo, Amaranthus retroflexus; details: for Pigweed plant response rating: 0 to 100 scale
# Summary of the method: (§1)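 Untreated controls served as the reference for visual injury ratings taken about ten days after spraying. The non-phytotoxic solvent/surfactant formulation was applied preemergence to seeded loam and sand and postemergence to plants two to ten cm high.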
# [2] = tested on: eastern black nightshade; assay: Test C pre-/postemergence test; type: in vivo, Solanum ptycanthum
# Summary of the method: (§2)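 Seeds were planted and treated preemergence with test chemical in a non-phytotoxic solvent mixture containing surfactant. Postemergence applications of the same formulation went onto plants 2 to 18 cm tall (1- to 4-leaf stage). A dash marks no test result.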
# [3] = tested on: woolly cupgrass; assay: Test C pre-/postemergence test; type: in vivo, Eriochloa villosa
# Summary of the method: as §2
# [4] = tested on: wheat; assay: Test C pre-/postemergence test; type: in vivo, Triticum aestivum; details: for Wheat plant response rating: preemergence, scale 0 (no effect) to 100 (complete control)
# Summary of the method: as §2
# [5] = tested on: duck salad; assay: Test C flooded paddy test; type: in vivo, Heteranthera limosa; details: Flood
# Summary of the method: (§3)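 Under a constant 3 cm flood, test compounds went directly into the paddy water. Following 13 to 15 days of greenhouse growth, treated species and controls were compared by eye.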
# [6] = tested on: green foxtail; assay: Test C pre-/postemergence test; type: in vivo, Setaria viridis
# Summary of the method: as §2
# [7] = tested on: wild oat; assay: Test C pre-/postemergence test; type: in vivo, Avena fatua
# Summary of the method: as §2
# [8] = tested on: corn; assay: Test C pre-/postemergence test; type: in vivo, Zea mays
# Summary of the method: as §2
# [9] = tested on: Italian ryegrass; assay: Test C pre-/postemergence test; type: in vivo, Lolium multiflorum
# Summary of the method: as §2
# [10] = tested on: common (oilseed) sunflower; assay: Test C pre-/postemergence test; type: in vivo, Helianthus annuus; details: for Sunflower plant response rating: preemergence, scale 0 (no effect) to 100 (complete control)
# Summary of the method: as §2
# [11] = tested on: crabgrass; assay: Test A pre-/postemergence greenhouse test; type: in vivo, Digitaria sanguinalis; details: for Crabgrass, Large plant response rating: 0 to 100 scale
# Summary of the method: as §1
# [12] = tested on: blackgrass; assay: Test C pre-/postemergence test; type: in vivo, Alopecurus myosuroides
# Summary of the method: as §2
# [13] = tested on: morningglory; assay: Test A pre-/postemergence greenhouse test; type: in vivo, Ipomoea spp.; details: for Morningglory plant response rating: 0 to 100 scale
# Summary of the method: as §1
# [14] = tested on: Goosegrass; assay: Test C pre-/postemergence test; type: in vivo, Eleusin indica
# Summary of the method: as §2
# [15] = tested on: umbrella sedge; assay: Test C flooded paddy test; type: in vivo, Cyperus difformis; details: Flood
# Summary of the method: as §3
# [16] = tested on: yellow nutsedge; assay: Test C pre-/postemergence test; type: in vivo, Cyperus esculentus
# Summary of the method: as §2
# [17] = tested on: common ragweed; assay: Test C pre-/postemergence test; type: in vivo, Ambrosia elation
# Summary of the method: as §2
# [18] = Postemergence, 125 g ai/ha, 0 is no effect, 100 is complete control
# [19] = Postemergence, 500 g ai/ha, 0 is no effect, 100 is complete control
# [20] = Preemergence, 125 g ai/ha, 0 no effect, 100 complete control
# [21] = Preemergence, 500 g ai/ha, 0 to 100 scale where 0 is no effect and 100 is complete control
# [22] = 31 g ai/ha, Preemergence, scale 0 to 100
# [23] = 62 g ai/ha, preemergence, scale 0 (no effect) to 100 (complete control)
# [24] = preemergence, 125 g ai/ha, scale 0 (no effect) to 100 (complete control)
# [25] = 31 g ai/ha, scale 0 to 100 (0 no effect, 100 complete control)
# [26] = 62 g ai/ha, scale 0 to 100, 0 no effect, 100 complete control, 13 to 15 days
# [27] = 125 g ai/ha, scale 0 to 100, 0 no effect, 100 complete control, 13 to 15 days
compound,measurement,setting,value
Cn1nc(C(F)(F)F)c(C[S+]([O-])c2ccc(Br)c[n+]2[O-])c1OC(F)F (racemic) [Compound 16],Pigweed plant response rating,[1]; [18],20
same,Pigweed plant response rating,[1]; [19],70
same,Pigweed plant response rating,[1]; [20],100
same,"Plant response rating, Pigweed",[1]; [21],100
same,Nightshade plant response rating,[2]; [22],100
same,Nightshade plant response rating,[2]; [23],100
same,"Plant response rating (0 to 100), Nightshade","[2]; Preemergence, 250 g ai/ha",100
same,Nightshade plant response rating,[2]; [24],100
same,"Cupgrass, Woolly plant response rating",[3]; [22],20
same,"Cupgrass, Woolly plant response rating",[3]; [23],80
same,"Plant response rating (0 to 100), Cupgrass, Woolly","[3]; Preemergence, 250 g ai/ha",100
same,"Cupgrass, Woolly plant response rating",[3]; [24],95
same,Wheat plant response rating,[4]; 62 g ai/ha,30
same,"Plant response rating (0 to 100), Wheat","[4]; Preemergence, 250 g ai/ha",90
same,Wheat plant response rating,[4]; 125 g ai/ha,60
same,"Plant response rating, Ducksalad",[5]; [25],0
same,"Plant response rating, Ducksalad",[5]; [26],0
same,"Plant response rating, Ducksalad",[5]; [27],0
same,"Plant response rating, Ducksalad","[5]; 250 g ai/ha, scale 0 to 100 (0 no effect, 100 complete control)",0
same,"Foxtail, Green plant response rating",[6]; [22],70
same,"Foxtail, Green plant response rating",[6]; [23],70
same,"Plant response rating (0 to 100), Foxtail, Green","[6]; Preemergence, 250 g ai/ha",100
same,"Foxtail, Green plant response rating",[6]; [24],70
same,"Oat, Wild plant response rating",[7]; [22],0
same,"Oat, Wild plant response rating",[7]; [23],70
same,"Plant response rating (0 to 100), Oat, Wild","[7]; Preemergence, 250 g ai/ha",80
same,"Oat, Wild plant response rating",[7]; [24],75
same,Corn plant response rating,[8]; [22],40
same,Corn plant response rating,[8]; [23],95
same,"Plant response rating (0 to 100), Corn","[8]; Preemergence, 250 g ai/ha",100
same,Corn plant response rating,[8]; [24],98
same,"Ryegrass, Italian plant response rating",[9]; [22],30
same,"Ryegrass, Italian plant response rating",[9]; [23],50
same,"Plant response rating (0 to 100), Ryegrass, Italian","[9]; Preemergence, 250 g ai/ha",100
same,"Ryegrass, Italian plant response rating",[9]; [24],55
same,Sunflower plant response rating,[10]; 62 g ai/ha,30
same,"Plant response rating (0 to 100), Sunflower","[10]; Preemergence, 250 g ai/ha",85
same,Sunflower plant response rating,[10]; 125 g ai/ha,50
same,"Crabgrass, Large plant response rating",[11]; [18],70
same,"Crabgrass, Large plant response rating",[11]; [19],90
same,"Crabgrass, Large plant response rating",[11]; [20],80
same,"Plant response rating, Crabgrass, Large",[11]; [21],100
same,Blackgrass plant response rating,[12]; [22],0
same,Blackgrass plant response rating,[12]; [23],50
same,Blackgrass plant response rating,[12]; [24],50
same,Morningglory plant response rating,[13]; [18],20
same,Morningglory plant response rating,[13]; [19],60
same,Morningglory plant response rating,[13]; [20],30
same,"Plant response rating, Morningglory",[13]; [21],80
same,Goosegrass plant response rating,[14]; [22],98
same,Goosegrass plant response rating,[14]; [23],100
same,"Plant response rating (0 to 100), Goosegrass","[14]; Preemergence, 250 g ai/ha",100
same,Goosegrass plant response rating,[14]; [24],100
same,"Plant response rating, Sedge, Umbrella",[15]; [25],0
same,"Plant response rating, Sedge, Umbrella",[15]; [26],0
same,"Plant response rating, Sedge, Umbrella",[15]; [27],0
same,"Plant response rating, Sedge, Umbrella","[15]; 250 g ai/ha, scale 0 to 100, 0 no effect, 100 complete control, 13 to 15 days",0
same,"Nutsedge, Yellow plant response rating",[16]; [22],60
same,"Nutsedge, Yellow plant response rating",[16]; [23],80
same,"Plant response rating (0 to 100), Nutsedge, Yellow","[16]; Preemergence, 250 g ai/ha",100
same,"Nutsedge, Yellow plant response rating",[16]; [24],85
same,Ragweed plant response rating,[17]; [22],10
same,Ragweed plant response rating,[17]; [23],45
same,Ragweed plant response rating,[17]; [24],100
